{"source": "patent US20080280955A1", "about": "“Methods and compositions for screening and treatment of disorders of blood glucose regulation” (Perlegen Sciences, Inc., priority 2005, published 2008)", "origin": "cited, not measured here", "key": {"PPAR-gamma": {"biological_target": "T1, PPAR-gamma (Homo sapiens, UniProt P37231)", "T1 sequence (P37231 1-505)": "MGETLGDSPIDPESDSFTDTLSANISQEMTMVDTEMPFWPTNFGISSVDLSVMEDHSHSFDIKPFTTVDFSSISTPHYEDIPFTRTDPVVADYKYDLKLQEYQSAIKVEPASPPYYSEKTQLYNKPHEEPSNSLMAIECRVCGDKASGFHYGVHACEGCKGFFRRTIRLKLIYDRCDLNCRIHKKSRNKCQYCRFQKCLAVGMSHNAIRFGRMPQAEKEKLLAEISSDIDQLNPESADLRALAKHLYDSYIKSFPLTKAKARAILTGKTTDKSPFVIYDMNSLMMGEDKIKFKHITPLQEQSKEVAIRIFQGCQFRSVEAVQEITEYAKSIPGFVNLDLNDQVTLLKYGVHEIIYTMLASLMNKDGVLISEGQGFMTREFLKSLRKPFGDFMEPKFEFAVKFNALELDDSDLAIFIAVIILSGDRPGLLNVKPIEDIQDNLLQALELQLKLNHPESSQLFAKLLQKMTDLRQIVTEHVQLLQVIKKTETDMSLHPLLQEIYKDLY", "details": "context-specific, depends on cell type"}, "PPAR-delta": {"biological_target": "T2, PPAR-delta (Homo sapiens, UniProt Q03181)", "T2 sequence (Q03181 1-441)": "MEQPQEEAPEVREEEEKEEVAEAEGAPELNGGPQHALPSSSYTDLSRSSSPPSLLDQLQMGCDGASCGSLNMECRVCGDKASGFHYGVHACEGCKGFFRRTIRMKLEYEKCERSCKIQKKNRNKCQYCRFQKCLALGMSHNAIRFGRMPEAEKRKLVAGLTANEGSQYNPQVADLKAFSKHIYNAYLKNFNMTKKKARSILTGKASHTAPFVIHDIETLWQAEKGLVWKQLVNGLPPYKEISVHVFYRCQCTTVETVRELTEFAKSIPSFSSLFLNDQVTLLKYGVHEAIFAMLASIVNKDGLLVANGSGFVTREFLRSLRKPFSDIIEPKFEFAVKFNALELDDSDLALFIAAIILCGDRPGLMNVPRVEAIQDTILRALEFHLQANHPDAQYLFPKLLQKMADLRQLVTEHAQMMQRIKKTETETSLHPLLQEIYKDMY"}, "PPAR-alpha": {"biological_target": "T3, PPAR-alpha (Homo sapiens, UniProt Q07869)", "T3 sequence (Q07869 1-468)": "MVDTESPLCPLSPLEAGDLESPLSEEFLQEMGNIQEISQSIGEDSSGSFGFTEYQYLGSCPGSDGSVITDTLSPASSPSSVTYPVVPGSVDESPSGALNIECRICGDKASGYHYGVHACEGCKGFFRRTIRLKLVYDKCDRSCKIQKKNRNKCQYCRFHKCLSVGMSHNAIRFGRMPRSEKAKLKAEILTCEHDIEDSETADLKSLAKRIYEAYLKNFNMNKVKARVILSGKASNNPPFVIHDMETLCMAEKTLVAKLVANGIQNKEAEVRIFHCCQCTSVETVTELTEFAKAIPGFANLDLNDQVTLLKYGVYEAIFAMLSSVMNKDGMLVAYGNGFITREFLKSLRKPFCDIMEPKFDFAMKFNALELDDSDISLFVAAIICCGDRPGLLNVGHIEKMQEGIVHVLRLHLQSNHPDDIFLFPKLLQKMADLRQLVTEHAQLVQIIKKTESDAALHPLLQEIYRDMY"}}, "data": [{"smiles": "O=C1NC(=O)C(Cc2ccc3cc(OCc4ccccc4F)ccc3c2)S1", "note": "(centres unmarked) [netoglitazone, 5-[{6-(2-fluorobenzyl)oxy-2-naphthyl}methyl]-2,4-thiazolidinedione]", "values": [{"measurement": "efficacy in lowering plasma glucose, insulin, and triglyceride levels", "setting": "compared with pioglitazone and troglitazone", "value": "more efficacious than pioglitazone and troglitazone"}, {"measurement": "potency relative to rosiglitazone", "setting": "compared with rosiglitazone", "value": "about three-fold"}, {"measurement": "behaviour at PPAR-gamma", "setting": "PPAR-gamma", "value": "full agonist of PPAR-gamma and as a partial agonist or antagonist in others"}, {"measurement": "modulation of PPAR-delta", "setting": "PPAR-delta", "value": "appears to modulate"}, {"measurement": "modulation of PPAR-alpha", "setting": "PPAR-alpha", "value": "appears to modulate"}]}]}
